Key:
Panc-1 cells [1] = experiment: Muse Live/dead Annexin V assay; format: cell-based; conditions: Panc-1, 48 h; AS-10 2.5 μM, gemcitabine 50 μM
Description: Muse Annexin V & Dead Cell kit was used to determine the apoptosis cells in AS-10 treated Panc-1 cells (Plano et al., 2016, J. Med. Chem. 1946-1959). The Muse Annexin V & Dead cell assay contains Annexin V to detect phosphatidylserine (PS) on the outer surface of cells. The kit also contains a dead cell marker, 7-amino-actinomycin D (7-AAD). […] In brief, Panc-1 (1.5×10^5) cells were treated with a given dose of AS-10 or DMSO for appropriate time (0, 6, 12, 24, 36, or 48 h). Both floating cells as well as adherent cells were collected and subjected for Annexin V staining using Muse Annexin V & Dead Cell kit with Muse cell analyzer (EMD Millipore, Billerica, Mass., USA). The obtained data were analyzed using Muse 1.4 software.

[2] = tested on: Mouse embryonic fibroblast cells (MEFs); experiment: cells; format: cell-based
Description: (§1) MTT (3-(4,5-dimethylthiazol-2-yl)-2,5-diphenyltetrazolium) assay was performed to determine the effect of AS-10 on cancer cell viability (Plano et al., 2016, J. Med. Chem. 1946-1959; Alcolea et al., 2012, Eur. J. Med. Chem. 113:134-144; Kumar et al., 2014, Eur. J. Med. Chem. 81:267-276). Briefly, 3×10^3 cells were treated with different concentrations of AS-10 in triplicate in a 96-well plate for different time points. MTT solution (20 μL of 5.0 mg/mL solution) was added to each well, three hours prior to termination time point and incubated at 37° C. Resultant formazan crystals, at termination time point, were dissolved in 50 μL DMSO. The plate was subjected to a 96-well multiscanner (Dynex Technologies, MRX Revelation; Chantilly, Va., USA) for measuring the optical densities at 570 nm and 630 nm. IC50 values were determined by performing non-linear regression using Graphpad Prism software.
To determine that AS-10 was selectively toxic to cancer cells, the effect of AS-10 in normal Mouse embryonic fibroblast cells (MEFs) was tested using MTT assay. MEFs were treated with AS-10 for 48 h and the data was compared with Panc-1 cells, treated for 48 h. […] At the dose which yields 50 percent growth inhibition in PC cells, AS-10 had no effect on MEFs growth.

[3] = Maximum tolerated dose (MTD) / toxicology studies in mice
[4] = tested on: androgen receptor (AR) signaling in LNCaP cells; experiment: AR / PSA and DNA damage response proteins in LNCaP cells; format: cell-based
[5] = tested on: NCI-60 Human Tumor Cell Lines; experiment: NCI-60 Human Tumor Cell Lines Screen; format: cell-based
Description: AS-10 was submitted for National Cancer Institute's (NCI) Division of Cancer Treatment and Diagnosis (DCTD) for a single dose (10 μM for 72 h) screening on 60 different cancer cell lines (NCI-60 Human Tumor Cell Lines Screen, Developmental Therapeutic Program). The panel of cell lines included leukemia, non-small cell lung, colon, CNS, melanoma, ovarian, renal, prostate and breast cancer cell lines. […] AS-10 was screened against the same 60 cell lines at a dose of 0, 0.01, 0.1, 1, 10 and 100 μM for 72 h. […] Cell lines are grouped by the cancer type they represent. […] FIG. 16 is the tabular format of the effects of AS-10 on growth of all the tested cell lines.

Panc-1 cells [6] = experiment: Live/dead assay with calcein-AM and ethidium bromide; format: cell-based; conditions: Panc-1, 48 h; AS-10 2.5 μM, gemcitabine 50 μM
Description: To determine the dead cell population, we used LIVE/DEAD Viability/Cytotoxicity Kit (L3224, Life technologies, USA). Panc-1 cells were treated with either DMSO, gemcitabine (50 μM), or AS-10 (2.5 μM) or in combination for 48 h. Live and dead cells were determined by subjecting treated cells to LIVE/DEAD Viability/Cytotoxicity Kit (Plano et al., 2016, J. Med. Chem. 1946-1959). […] While ethidium homodimer-1 can only enter cells who have lost their plasma membrane integrity or dead cells and fluorescents red. Stained cells were visualized using a fluorescence microscope (Zeiss—Axio Scope.A1) with a 20× objective lens. Percentage values of live and dead cells were calculated.

LNCaP cells = experiment: MTT cell viability test, LNCaP; format: cell-based; conditions: Homo sapiens, time and concentration dependent, read-out: EC50, growth inhibition of LNCaP cells
Description: as §1

[7] = tested on: prostate cancer cells (LnCAP, PC-3 and DU-145); experiment: Apoptosis in prostate cancer cells; format: cell-based
Panc-1 cells [8] = experiment: MTT cell viability assay, Panc-1; format: cell-based; conditions: for IC50: Homo sapiens
Description: as §1
To test the anti-cancer activity of AS-10 in pancreatic cancer (PC) cell lines, a MTT assay was performed. PC cell lines, Panc-1 and BxPC3, were treated with AS-10 at different doses at different time points (24, 48, and 72 h). Resulting cells were subjected to MTT cell viability assay. […] Panc-1 cells were treated with different doses of AS-10 for 48 h. After 48 h, live cells were counted and plated in a new petri dish. Cells were allowed to form colonies for 17 days. At the end of 17 days the colonies were counted and compared to the untreated cells.

## CC(=O)Oc1ccccc1C(=O)/N=C1\[Se]CCN1C(=O)c1ccccc1OC(C)=O [AS-10, 2-((3-(2-acetoxybenzoyl)-1,3-selenazolidin-2-ylidene)carbamoyl)phenyl acetate]
Panc-1 cells [1]
  total apoptotic cells: ~25%
[2]
  effect on MEFs growth: no effect
[2]; Mus musculus, Fibroblast, read-out: IC50, normal (Mouse Embryonic Fibroblasts) cells
  IC50: > 50000 nM
[3]; mouse, in vivo
  safety margin, preliminary toxicology study in mice: wide safety margin
[3]; nude mice
  tolerability of AS-10 relative to Asp-SeCN (MTD): ~5 times
[3]; nude, mouse, in vivo, ip
  MTD: ~80 mg/kg
[4]
  prostate specific antigen (PSA) in cell culture media of LnCAP cells: inhibited
[4]; LNCaP
  androgen receptor (AR) level: down regulated
  expression of p21 and p-H2A.X: increased the expression
[4]; LNCaP, concentration-dependent
  protein level of AR and PSA (Western blot): decreased protein level
[5]; 0.01-100 μM, 72 h
  selectivity among NCI-60 cell types: most cytotoxic towards CNS, melanoma and renal cancer cell lines
[5]; single dose 10 μM for 72 h
  cell growth of NCI-60 cell lines: inhibited cell growth of all 60 cell lines
Panc-1 cells [6]
  dead cells: ~10%
LNCaP cells
  EC50: 1700 to 2500 nM
[7]; LNCaP
  Annexin V staining, caspase 3/7 activity, and PARP cleavage: increased
[7]; LnCAP, PC-3 and DU-145
  apoptosis induction in prostate cancer cells: effective at inducing apoptosis in all prostate cancer cells tested
Panc-1 cells [8]; PANC-1, 48 h
  IC50: 1000 to 2500 nM
Panc-1 cells [8]; Panc-1, different time points (24, 48, 72 h)
  IC50: 1000 to 5000 nM
Panc-1 cells [8]; Panc-1, 48 h
  potency relative to gemcitabine: > 500 times

From patent US10287259B2, “Selenazolidine and thiazolidine compounds for treating cancer and other diseases” (The Penn State Research Foundation, priority 2016, dated 2019)
